US20250051266A1, “Novel GLV-Phenolamide: Biosynthesis and Function in Protecting Plants from Herbivore Attack” (Max-Planck-Gesellschaft zur Förderung der Wissenschaften …, priority 2021, published 2025)
“Also recorded” adds a separate entry of the source. Blank lines part the entries; values can stand above or below the compound they belong to.

Experiments:
[1] = molecular target: T1, NaPPO1 (Nicotiana attenuata, UniProt A0A1J6JLI9); assay: In vitro enzyme assay, substrate specificity of NaPPO1; format: biochemical
T1 sequence (A0A1J6JLI9 1-596): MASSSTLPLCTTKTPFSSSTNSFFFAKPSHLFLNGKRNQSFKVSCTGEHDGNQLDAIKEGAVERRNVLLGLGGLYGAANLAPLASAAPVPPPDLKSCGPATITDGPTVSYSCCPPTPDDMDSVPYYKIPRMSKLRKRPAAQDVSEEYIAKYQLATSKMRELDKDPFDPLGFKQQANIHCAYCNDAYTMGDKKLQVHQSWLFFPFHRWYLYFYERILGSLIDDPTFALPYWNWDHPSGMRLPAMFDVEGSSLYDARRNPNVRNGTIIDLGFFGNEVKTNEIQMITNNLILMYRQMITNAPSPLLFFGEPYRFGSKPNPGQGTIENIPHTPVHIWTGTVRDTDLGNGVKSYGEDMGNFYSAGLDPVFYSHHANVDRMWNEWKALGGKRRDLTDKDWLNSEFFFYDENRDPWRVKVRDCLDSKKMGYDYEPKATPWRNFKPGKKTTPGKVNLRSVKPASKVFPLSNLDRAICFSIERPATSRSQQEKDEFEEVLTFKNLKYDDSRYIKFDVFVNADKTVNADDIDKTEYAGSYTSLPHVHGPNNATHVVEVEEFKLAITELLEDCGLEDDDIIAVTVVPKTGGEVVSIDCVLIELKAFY
Excerpt: (§1) Extracted ion chromatograms (EIC) for doubly charged CP dimer (m/z 250.13) and m/z 347.19 in E. coli expressing NaPPO1 and NaPPO2 with CP and Z3H or (E)-2-hexenal. Compounds 1, 2, 3, 4 denote isomers of CP dimer; compounds 5, 6 denote isomers of m/z 347.19.
(§2) FIG. 53 Substrate specificity of NaPPO1 and NaPPO2 enzymes. Overlay of total ion chromatograms (TIC) of enzyme assays for authentic chlorogenic acid (CGA std), N-coumaroylputrescine (CoP std), (Z)-3-hexenal or (E)-2-hexenal with purified NaPPO1/NaPPO2 from E. coli. Compounds 1 and 2 denote CGA and CoP; 3 and 4 denote contamination peaks from (Z)-3-hexenal and CoP standards, respectively.
(§3) To test this hypothesis, purified NaPPO1, NaPPO2 and NaBBL2 proteins with N-terminal hexahistidine tags after expression in Escherichia coli were isolated (FIGS. 44-45). Incubation of either NaPPO1 or NaPPO2 (NaPPO1/2) with CP and (Z)-3-hexenal yielded a m/z 347.19 peak with identical MS/MS spectrum and retention time as the m/z 347.19 induced in N. attenuata leaves (FIG. 46). Additionally, by-products of doubly charged CP dimers at m/z 250.13 ([M+2H]2+, C26H36N4O62+) which are not detected in oral secretion-induced leaves of N. attenuata WT (Data 2) were also produced in vitro (FIG. 16 and FIG. 47). These doubly charged CP dimers were only produced when the quantities of the (Z)-3-hexenal substrate were lower than those of the CP substrate in vitro. […]
(§4) In vitro assays of NaPPO1, NaPPO2, and NaBBL2: NaPPO1, NaPPO2, and NaBBL2 enzyme activity assays were performed by incubating 100 μg of the purified recombinant protein in 84 mM acetate buffer (pH 4.8) containing 20 mM (E)-N-caffeoylputrescine (BOC Sciences, catalogue #: B0005-053482) and 1 M cis-3-hexenal (Sigma, catalogue #: W256102-SAMPLE-K) or trans-2-hexenal (Sigma, catalogue #: W256005-1KG-K). During incubation of the enzyme reactions at 8° C., 1 μL of the reactions buffer was directly injected and analyzed by LC-MS every h to detect products. […]

[2] = molecular target: NaPPO2 (Nicotiana attenuata, UniProt A0A1J6IKE9); assay: In vitro enzyme assay, substrate specificity of NaPPO2; format: biochemical
Sequence of NaPPO2 (A0A1J6IKE9 entry or part of it): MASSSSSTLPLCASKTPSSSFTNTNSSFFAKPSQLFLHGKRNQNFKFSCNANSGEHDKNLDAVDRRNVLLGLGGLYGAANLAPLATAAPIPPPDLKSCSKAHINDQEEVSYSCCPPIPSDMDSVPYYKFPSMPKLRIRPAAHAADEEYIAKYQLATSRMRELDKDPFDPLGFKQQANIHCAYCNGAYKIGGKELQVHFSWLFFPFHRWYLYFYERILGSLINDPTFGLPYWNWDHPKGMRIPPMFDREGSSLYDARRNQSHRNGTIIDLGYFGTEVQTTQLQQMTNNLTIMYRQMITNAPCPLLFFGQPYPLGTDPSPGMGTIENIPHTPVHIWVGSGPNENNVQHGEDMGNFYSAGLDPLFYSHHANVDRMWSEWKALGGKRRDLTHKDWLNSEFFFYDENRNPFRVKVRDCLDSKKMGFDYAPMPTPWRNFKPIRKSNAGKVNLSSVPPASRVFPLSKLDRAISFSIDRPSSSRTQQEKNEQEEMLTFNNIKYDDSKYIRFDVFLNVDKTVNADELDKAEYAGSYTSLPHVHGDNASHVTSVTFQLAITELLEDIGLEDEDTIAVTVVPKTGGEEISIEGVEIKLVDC
Excerpt: as §1, §2, §3, §4

[3] = system: Empoasca decipiens; assay: In vitro Empoasca non-choice (direct feeding) assay on artificial diet; format: in vivo; details: for changes in mortality rates of E. decipiens compared to glucose controls: physiologically relevant concentrations (CoP 7 μM, CP 100 μM, FP 10 μM) in 10% glucose solution
Protocol: FIG. 18 Mortality rates of in vitro Empoasca non-choice assays (n=4, 25 Empoasca leafhoppers per replicate) in which Empoasca were fed for 6 h with either 1 μM m/z 347.19 synthesized by using NaPPO1/NaPPO2 and CP and Z3H and diluted in 10% glucose solution or with 10% glucose as control (top). Empoasca in planta choice assays (n=8) conducted with VIGS plants of EV, PPO1, PPO2 and AT1 (bottom).
To test if CPH is responsible for Empoasca resistance, E. decipiens were fed with physiologically relevant concentrations of 1 μM (estimated from field-collected elicited leaves) of NMR-confirmed CPH in diets containing 10% glucose in vitro. […] NaAT1 expression was silenced in N. attenuata plants using VIGS, which disrupted the production of both CP and the CPH (Li et al., Proc Natl Acad Sci USA 112, E4147-4155 (2015)) (FIG. 13).
Empoasca feeding assays: The survival rate of Empoasca feeding on artificial diet (10% 5 sucrose in water) supplemented with caffeoylputrescine (CP, 100 μM), coumaroylputrescine (CoP, 7 μM), feruloylputrescine (FP, 10 μM), or the m/z 347.19 hexenyl derivative of CP (CPH, 1 μM) was recorded every 1 h overnight. The artificial feeding devices consisted of a 50-mL Falcon tube with a 7-mm hole drilled into the conical bottom through which the leafhoppers were aspi-rated into the tube and which then was covered with Parafilm punctured with needles to create ventilation holes. The large opening of the Falcon tube was covered with a double layer of Parafilm containing the liquid diet (100 μL). The artificial feeding devices were placed upside down with the liquid diet side down on a White Light Box (STRATAGENE) to provide bottom-light illu-mination.

[4] = system: Empoasca leafhoppers; assay: In vivo Empoasca choice assay, compounds infiltrated into irMYC2 leaves; parameters: species or system Empoasca decipiens; details: synthetic CoP 7 μM, CP 100 μM, FP 10 μM in 0.1% DMSO infiltrated into irMYC2 leaves
Protocol: The spermi-dine-derived metabolites could be excluded as mediators of Empoasca nonhost resistance based on the lack of responses of leafhoppers to the irDH29 and irCV86 lines (FIG. 5). To further explore the involvement of CoP, CP and FP, in vivo Empoasca choice assays were conducted by individually infiltrating physiologically relevant concentrations of synthetic CoP (7 μM), CP (100 μM) and FP (10 μM) into leaves of irMYC2 plants which were devoid of elicited phenolamides (FIG. 9 and FIG. 34).
Two replicates of the 650 RILs from a 26-parent MAGIC population and their 26 parental 5 lines were planted at the WCCER field station, Prescott, Arizona, USA. To elicit a standardized herbivory response, leaves of all RILs, which were in the early-flowering stage were wounded and immediately treated with diluted Manduca sexta oral secretions (W+OS) or left untreated (control) and harvested on dry ice at 1 h and 72h. One week after metabolite sampling, all plants of the field population were screened for natural Empoasca leafhopper numbers and damage; these leafhoppers had opportunistically sampled the N. attenuata plants from neighboring native cu-cumber hostplants. The mQTL and eQTL mapping between SNPs and the relative abundance of each compound or transcript using a set of 646 RILs of the MAGIC population was done with the R package software GAPIT using General linear models (GLM). The multi-omics co-association network was built from correlations among metabolomes, transcriptomes, phytohormones and SNPs. […] Metabolome diversity and specialization and metabolic specificity was calculated using information theory by consider-ing the Shannon entropy of the idMS/MS frequency distributions. […] OS-induced volatile emissions were collected using polydimethylsiloxane (PDMS) tubing from 650 MAGIC RILs planted in the main MPI-CE glasshouse and analyzed bythermal desorption-gas chromatography-mass spectrometry (TD-GC-MS). […]

[5] = Estimation of half-life of m/z 347.19 by NMR time acquisitions; format: physicochemical; details: acidified methanol-d3 (0.1% formic acid), room temperature, darkness
Excerpt: FIG. 55 Estimation of half-life of m/z 347.19. Different time acquisitions of NMR spectra for purified m/z 347.19 are shown.
(§5) To elucidate the chemical structure of m/z 347.19, it was attempted to isolate and purify the m/z 347.19 using induced N. attenuata leaf material and enzyme assay-derived products. However, several attempts failed due to the instability of m/z 347.19. […] These observations indicate that m/z 347.19 is reactive and unstable at high pH. The purification procedures for m/z 347.19 were modified to produce large quantities from enzymatic assays under weak acidic conditions and purified m/z 347.19 using solid phase extraction under argon atmospheres. The purified m/z 347.19 was then subjected to NMR analysis, which elucidated its structural identity as a CP-5-(Z)-3-hexenal compound (hereafter named CPH) (FIG. 54). […] CPH contains both a reactive moiety of a, 3-unsaturated aldehyde derived from (Z)-3-hexenal, which is electrophilic, and an amine feature of the caffeoylputrescine, which is nucleophilic.

[6] = Stability of m/z 347.19 during sample extraction and purification; format: physicochemical
Excerpt: as §5

Compound: O=C(/C=C/c1ccc(O)c(O)c1)O[C@@H]1C[C@](O)(C(=O)O)C[C@@H](O)[C@H]1O [CGA, chlorogenic acid]
- acceptance as substrate (new products) ([1]; incubated with NaPPO1 and (Z)-3-hexenal): not accepted as substrates
- acceptance as substrate (new products) ([2]; incubated with NaPPO2 and (Z)-3-hexenal): not accepted as substrates

Compound: COc1cc(/C=C/C(=O)NCCCCN)ccc1O [FP, N-feruloylputrescine]
- changes in mortality rates of E. decipiens compared to glucose controls [3]: no significant changes in mortality rates; also recorded: not affecting leafhopper behavior or performance
- preference of Empoasca for irMYC2 plants [4]: did not alter the preference; also recorded: not affecting leafhopper behavior or performance

Compound: CCC/C=C/C=O [(E)-2-hexenal]
- enzyme activity (m/z 347.19 production) ([1]; NaPPO1 incubated with CP and (E)-2-hexenal): little-to-no activity
- enzyme activity (m/z 347.19 production) ([2]; NaPPO2 incubated with CP and (E)-2-hexenal): little-to-no activity

Compound: NCCCCNC(=O)/C=C/c1ccc(O)c(O)c1 [CP, N-caffeoylputrescine]
- changes in mortality rates of E. decipiens compared to glucose controls [3]: no significant changes in mortality rates; also recorded: not affecting leafhopper behavior or performance
- preference of Empoasca for irMYC2 plants [4]: did not alter the preference; also recorded: not affecting leafhopper behavior or performance

- half-life [5]: ~22 h
- Stability ([6]; Leaf sample collection using Eppendorf tubes without direct contact with liquid N2): Yes
- Stability ([6]; Leaf sample collection using aluminium foil in liquid N2): No
- Stability ([6]; Purifying using SPE column with argon flow): Yes
- Stability ([6]; Purifying using freeze drying): No
- Stability ([6]; Purifying using rotary evaporator): No
- Stability ([6]; Sample extraction buffer pH 4.8): Yes
- Stability ([6]; Sample extraction buffer pH 10): No
- stability in buffer ([6]; ammonium-acetate buffer (pH 4.8)): relatively stable
- stability when concentrated ([6]; concentrated by rotatory evaporation or freeze drying): rapidly decomposed
- stability at high pH ([6]; high pH): unstable
Compound: CCC(/C=C/C=O)c1cc(O)c(O)cc1/C=C/C(=O)NCCCCN (centres unmarked) [CPH, CP-5-(Z)-3-hexenal]
- mortality at 1 µM ([3]; Empoasca decipiens, feed or water, 1 μM in diet containing 10% glucose, after 6 h of feeding, vs control diet, read-out: mortality of E. decipiens): ~100%
